According to patent US20260013501A1, “HERBICIDAL DERIVATIVES” (SYNGENTA CROP PROTECTION AG, priority 2022, published 2026):

Experiments:
Type in all cases: in vivo
Conditions in all cases: evaluated after 13 days
[1] = test system: Amaranthus palmeri (AMAPA); experiment: Pre-emergence Test (Table B1), AMAPA
[2] = test system: Amaranthus retoflexus (AMARE); experiment: Pre-emergence Test (Table B1), AMARE
Zea mays (ZEAMX) [3] = experiment: Pre-emergence Test (Table B1), ZEAMX
Zea mays (ZEAMX) [4] = experiment: Post-emergence Test (Table B2), ZEAMX; design: key: 5-point damage scale: 5=81-100%, 4=61-80%, 3=41-60%, 2=21-40%, 1=0-20%
Procedure: Seeds of a variety of test species are sown in standard soil in pots (Ipomoea hederacea (IPOHE), Zea mays (ZEAMX), Echinochloa crus-galli (ECHCG), Amaranthus palmeri (AMAPA), (Amaranthus retoflexus (AMARE), and (Setaria faberi (SETFA)). After 8 days cultivation under controlled conditions in a glasshouse (at 24° C./16° C., day/night; 14 hours light; 65% humidity), the plants are sprayed with an aqueous spray solution derived from the formulation of the technical active ingredient in acetone/water (50:50) solution containing 0.5% Tween 20 (polyoxyethelyene sorbitan monolaurate, CAS RN 9005-64-5). Rate of application is shown in g/ha in the tables below. The test plants are then grown in a glasshouse under controlled conditions in a glasshouse (at 24° C./16° C., day/night; 14 hours light; 65% humidity) and watered twice daily. After 13 days the test is evaluated for the percentage damage caused to the plant. The biological activities are shown in the following table on a five-point scale (5=81-100%; 4=61-80%; 3=41-60%; 2=21-40%; 1=0-20%; -=not tested).

CCn1c(Cc2cccc(C(F)(F)F)n2)cc(=O)c(C(=O)O)c1-c1ccc(Cl)c(Cl)c1 [Compound 39, 2-(3,4-dichlorophenyl)-1-ethyl-4-oxo-6-[[6-(trifluoromethyl)-2-pyridyl]methyl]pyridine-3-carboxylic acid]
Pre-emergence Test, percentage damage caused to the plant (five-point scale), AMAPA ([1]; Rate 1000 g/Ha): 0

CCn1c(Cc2ccn(C(F)F)n2)cc(=O)c(C(=O)O)c1-c1ccc(Cl)c(Cl)c1 [Compound 124, 2-(3,4-dichlorophenyl)-6-[[1-(difluoromethyl)pyrazol-3-yl]methyl]-1-ethyl-4-oxo-pyridine-3-carboxylic acid]
Pre-emergence Test, percentage damage caused to the plant (five-point scale), AMAPA ([1]; Rate 62.5 g/Ha): 0
Pre-emergence Test, percentage damage caused to the plant (five-point scale), AMARE ([2]; Rate 62.5 g/Ha): 0
Pre-emergence Test, percentage damage caused to the plant (five-point scale), ZEAMX (Zea mays (ZEAMX) [3]; Rate 62.5 g/Ha): 0

CCn1c(Cc2cccc(OC(F)(F)F)c2)cc(=O)c(C(=O)O)c1-c1ccc(Cl)c(Cl)c1 [Compound 30, 2-(3,4-dichlorophenyl)-1-ethyl-4-oxo-6-[[3-(trifluoromethoxy)phenyl]methyl]pyridine-3-carboxylic acid]
percentage damage caused to the plant, ZEAMX (Zea mays (ZEAMX) [4]; rate 1000 g/Ha): 0

CCn1c(Cc2ccc(C(F)F)nn2)cc(=O)c(C(=O)O)c1-c1ccc(Cl)c(Cl)c1 [Compound 108, 2-(3,4-dichlorophenyl)-6-[[6-(difluoromethyl)-pyridazin-3-yl]methyl]-1-ethyl-4-oxo-pyridine-3-carboxylic acid]
Pre-emergence Test, percentage damage caused to the plant (five-point scale), AMAPA ([1]; Rate 1000 g/Ha): 0
Pre-emergence Test, percentage damage caused to the plant (five-point scale), AMARE ([2]; Rate 1000 g/Ha): 0
Pre-emergence Test, percentage damage caused to the plant (five-point scale), ZEAMX (Zea mays (ZEAMX) [3]; Rate 1000 g/Ha): 0

CCn1c(Cc2cccc(Br)n2)cc(=O)c(C(=O)O)c1-c1ccc(Cl)c(Cl)c1 [Compound 138, 6-[(6-bromo-2-pyridyl)methyl]-2-(3,4-dichlorophenyl)-1-ethyl-4-oxo-pyridine-3-carboylic acid]
Pre-emergence Test, percentage damage caused to the plant (five-point scale), ZEAMX (Zea mays (ZEAMX) [3]; Rate 250 g/Ha): 0

CCn1c(Cc2ccnc(C(F)(F)F)n2)cc(=O)c(C(=O)O)c1-c1ccc(Cl)c(Cl)c1 [Compound 141, 2-(3,4-dichlorophenyl)-1-ethyl-4-oxo-6-[[2-(trifluoromethyl)pyrimidin-4-yl]methyl]pyridine-3-carboxylic acid]
Pre-emergence Test, percentage damage caused to the plant (five-point scale), AMAPA ([1]; Rate 250 g/Ha): 0
Pre-emergence Test, percentage damage caused to the plant (five-point scale), ZEAMX (Zea mays (ZEAMX) [3]; Rate 250 g/Ha): 0

CCn1c(Cc2ccnc(F)c2)cc(=O)c(C(=O)O)c1-c1ccc(Cl)c(Cl)c1 [Compound 44, 2-(3,4-dichlorophenyl)-1-ethyl-6-[(2-fluoro-4-pyridyl)methyl]-4-oxo-pyridine-3-carboxylic acid]
Pre-emergence Test, percentage damage caused to the plant (five-point scale), ZEAMX (Zea mays (ZEAMX) [3]; Rate 250 g/Ha): 0

CCn1c(Cc2ccc(OC)nn2)cc(=O)c(C(=O)O)c1-c1ccc(Cl)c(Cl)c1 [Compound 133, 2-(3,4-dichlorophenyl)-1-ethyl-6-[(6-methoxypyridazin-3-yl)methyl]-4-oxo-pyridine-3-carboxylic acid]
Pre-emergence Test, percentage damage caused to the plant (five-point scale), ZEAMX (Zea mays (ZEAMX) [3]; Rate 250 g/Ha): 0

CCn1c(Cc2cc(Cl)ccn2)cc(=O)c(C(=O)O)c1-c1ccc(Cl)c(Cl)c1 [Compound 117, 6-[(4-chloro-2-pyridyl)methyl]-2-(3,4-dichlorophenyl)-1-ethyl-4-oxo-pyridine-3-carboxylic acid]
Pre-emergence Test, percentage damage caused to the plant (five-point scale), ZEAMX (Zea mays (ZEAMX) [3]; Rate 62.5 g/Ha): 0
percentage damage caused to the plant, ZEAMX (Zea mays (ZEAMX) [4]; rate 62.5 g/Ha): 0

CCn1c(Cc2ccc(C)c(Cl)n2)cc(=O)c(C(=O)O)c1-c1ccc(Cl)c(Cl)c1 [Compound 97, 6-[(6-chloro-5-methyl-2-pyridiyl)methyl]-2-(3,4-dichlorophenyl)-1-ethyl-4-oxo-pyridine-3-carboxylic acid]
Pre-emergence Test, percentage damage caused to the plant (five-point scale), AMAPA ([1]; Rate 1000 g/Ha): 0
Pre-emergence Test, percentage damage caused to the plant (five-point scale), AMARE ([2]; Rate 1000 g/Ha): 0

CCn1c(Cc2cc(C(F)F)ccn2)cc(=O)c(C(=O)O)c1-c1ccc(Cl)c(Cl)c1 [Compound 115, 2-(3,4-dichlorophenyl)-6-[[4-(difluoromethyl)-2-pyridyl]methyl]-1-ethyl-4-oxo-pyridine-3-carboxylic acid]
Pre-emergence Test, percentage damage caused to the plant (five-point scale), ZEAMX (Zea mays (ZEAMX) [3]; Rate 250 g/Ha): 0

CCn1c(Cc2ccc(F)cc2)cc(=O)c(C(=O)O)c1-c1ccc(Cl)c(Cl)c1 [Compound 12, 2-(3,4-dichlorophenyl)-1-ethyl-6-[(4-fluorophenyl)methyl]-4-oxo-pyridine-3-carboxylic acid]
Pre-emergence Test, percentage damage caused to the plant (five-point scale), AMARE ([2]; Rate 1000 g/Ha): 0
percentage damage caused to the plant, ZEAMX (Zea mays (ZEAMX) [4]; rate 1000 g/Ha): 0

CCn1c(Cc2ccc(OC)cc2C(F)(F)F)cc(=O)c(C(=O)O)c1-c1ccc(Cl)c(Cl)c1 [Compound 65, 2-(3,4-dichlorophenyl)-1-ethyl-6-[[4-methoxy-2-(trifluoromethyl)phenyl]methyl]-4-oxo-pyridine-3-carboxylic acid]
Pre-emergence Test, percentage damage caused to the plant (five-point scale), ZEAMX (Zea mays (ZEAMX) [3]; Rate 1000 g/Ha): 0

CCn1c(Cc2ccn(CC(C)C)n2)cc(=O)c(C(=O)O)c1-c1ccc(Cl)c(Cl)c1 [Compound 121, 2-(3,4-dichlorophenyl)-1-ethyl-6-[(1-isobutylpyrazol-3-yl)methyl]-4-oxo-pyridine-3-carboxylic acid]
Pre-emergence Test, percentage damage caused to the plant (five-point scale), ZEAMX (Zea mays (ZEAMX) [3]; Rate 250 g/Ha): 0

CCn1c(Cc2nccs2)cc(=O)c(C(=O)O)c1-c1ccc(Cl)c(Cl)c1 [Compound 19, 2-(3,4-dichlorophenyl)-1-ethyl-4-oxo-6-(thiazol-2-ylmethyl)pyridine-3-carboxylic acid]
Pre-emergence Test, percentage damage caused to the plant (five-point scale), AMAPA ([1]; Rate 1000 g/Ha): 0
Pre-emergence Test, percentage damage caused to the plant (five-point scale), AMARE ([2]; Rate 1000 g/Ha): 0

CCn1c(Cc2cccc(Cl)c2)cc(=O)c(C(=O)O)c1-c1ccc(Cl)c(Cl)c1 [Compound 1, 6-[(3-chlorophenyl)methyl]-2-(3,4-dichlorophenyl)-1-ethyl-4-oxo-pyridine-3-carboxylic acid]
percentage damage caused to the plant, ZEAMX (Zea mays (ZEAMX) [4]; rate 1000 g/Ha): 0

CCn1c(Cc2cc(F)cc(F)c2)cc(=O)c(C(=O)O)c1-c1ccc(Cl)c(Cl)c1 [Compound 29, 2-(3,4-dichlorophenyl)-6-[(3,5-difluorophenyl)methyl]-1-ethyl-4-oxo-pyridine-3-carboxylic acid]
Pre-emergence Test, percentage damage caused to the plant (five-point scale), AMAPA ([1]; Rate 1000 g/Ha): 0
Pre-emergence Test, percentage damage caused to the plant (five-point scale), AMARE ([2]; Rate 1000 g/Ha): 0
Pre-emergence Test, percentage damage caused to the plant (five-point scale), ZEAMX (Zea mays (ZEAMX) [3]; Rate 1000 g/Ha): 0
percentage damage caused to the plant, ZEAMX (Zea mays (ZEAMX) [4]; rate 1000 g/Ha): 0

CCn1c(Cc2ccc(Cl)nc2)cc(=O)c(C(=O)O)c1-c1ccc(Cl)c(Cl)c1 [Compound 129, 6-[(6-chloro-3-pyridyl)methyl]-2-(3,4-dichlorophenyl)-1-ethyl-4-oxo-pyridine-3-carboxylic acid]
Pre-emergence Test, percentage damage caused to the plant (five-point scale), AMAPA ([1]; Rate 250 g/Ha): 0
percentage damage caused to the plant, ZEAMX (Zea mays (ZEAMX) [4]; rate 250 g/Ha): 0

CCn1c(Cc2cccc(C#N)n2)cc(=O)c(C(=O)O)c1-c1ccc(Cl)c(Cl)c1 [Compound 57, 6-[(6-cyano-2-pyridyl)methyl]-2-(3,4-dichlorophenyl)-1-ethyl-4-oxo-pyridine-3-carboxylic acid]
percentage damage caused to the plant, ZEAMX (Zea mays (ZEAMX) [4]; rate 1000 g/Ha): 0

CCn1c(Cc2ccon2)cc(=O)c(C(=O)O)c1-c1ccc(Cl)c(Cl)c1 [Compound 149, 2-(3,4-dichlorophenyl)-1-ethyl-6-(isoxazol-3-ylmethyl)-4-oxo-pyridine-3-carboxylic acid]
Pre-emergence Test, percentage damage caused to the plant (five-point scale), ZEAMX (Zea mays (ZEAMX) [3]; Rate 250 g/Ha): 0
percentage damage caused to the plant, ZEAMX (Zea mays (ZEAMX) [4]; rate 250 g/Ha): 0

CCn1c(Cc2nc(Cl)ccc2COC)cc(=O)c(C(=O)O)c1-c1ccc(Cl)c(Cl)c1 [Compound 105, 6-[[6-chloro-3-(methoxymethyl)-2-pyridyl]methyl]-2-(3,4-dichlorophenyl)-1-ethyl-4-oxo-pyridine-3-carboxylic acid]
Pre-emergence Test, percentage damage caused to the plant (five-point scale), AMAPA ([1]; Rate 250 g/Ha): 0
Pre-emergence Test, percentage damage caused to the plant (five-point scale), AMARE ([2]; Rate 250 g/Ha): 0

CCn1c(Cc2cccc(C(C)F)n2)cc(=O)c(C(=O)O)c1-c1ccc(Cl)c(Cl)c1 (stereo not shown) [Compound 147, 2-(3,4-dichlorophenyl)-1-ethyl-6-[[6-(1-fluoroethyl)-2-pyridyl]methyl]-4-oxo-pyridine-3-carboxylic acid]
Pre-emergence Test, percentage damage caused to the plant (five-point scale), AMAPA ([1]; Rate 250 g/Ha): 0

CCn1c(Cc2ncc(Cl)cn2)cc(=O)c(C(=O)O)c1-c1ccc(Cl)c(Cl)c1 [Compound 4, 6-[(5-chloropyrimidin-2-yl)methyl]-2-(3,4-dichlorophenyl)-1-ethyl-4-oxo-pyridine-3-carboxylic acid]
Pre-emergence Test, percentage damage caused to the plant (five-point scale), AMAPA ([1]; Rate 1000 g/Ha): 0

CCn1c(Cc2ccn(C3CC3)n2)cc(=O)c(C(=O)O)c1-c1ccc(Cl)c(Cl)c1 [Compound 54, 6-[(1-cyclopropylpyrazol-3-yl)methyl]-2-(3,4-dichlorophenyl)-1-ethyl-4-oxo-pyridine-3-carboxylic acid]
Pre-emergence Test, percentage damage caused to the plant (five-point scale), AMAPA ([1]; Rate 1000 g/Ha): 0
Pre-emergence Test, percentage damage caused to the plant (five-point scale), AMARE ([2]; Rate 1000 g/Ha): 0

CCn1c(Cc2ccc(F)c(OC)c2)cc(=O)c(C(=O)O)c1-c1ccc(Cl)c(Cl)c1 [Compound 95, 2-(3,4-dichlorophenyl)-1-ethyl-6-[(4-fluoro-3-methoxy-phenyl)methyl]-4-oxo-pyridine-3-carboxylic acid]
Pre-emergence Test, percentage damage caused to the plant (five-point scale), AMAPA ([1]; Rate 1000 g/Ha): 0
Pre-emergence Test, percentage damage caused to the plant (five-point scale), AMARE ([2]; Rate 1000 g/Ha): 0
Pre-emergence Test, percentage damage caused to the plant (five-point scale), ZEAMX (Zea mays (ZEAMX) [3]; Rate 1000 g/Ha): 0
